{
  "source": "paper PMC6324650",
  "about": "(Molecular Pharmacology, 2019)",
  "key": {"NK1 receptor": {"system": "NK1 receptor", "details": "37°C; ref Garland et al., 1994; cited from earlier work"}, "[1]": {"assay": "Hydrolysis and cyclization of active NHS ester in PBS", "format": "physicochemical", "details": "PBS (pH 8.2), ligand coupling conditions"}},
  "data": [
    {"compound": "substance P [SP]", "values": [
      {"measurement": "time to NK1 receptor internalization upon activation", "setting": "NK1 receptor", "result": 3, "unit": "min"}
    ]},
    {"compound": "O=C(CCCC[C@@H]1SC[C@@H]2NC(=O)N[C@@H]21)NCCCOCCOCCOCCCn1cc(CNC(=O)[C@H](CCCCNC(=O)CCC(=O)ON2C(=O)CCC2=O)NC(=O)CCc2ccc(C3(C(F)(F)F)N=N3)cc2)nn1", "note": "[probe 1, 2,5-Dioxopyrrolidin-1-yl 4-oxo-4-(((S)-6-oxo-6-(((1-(15-oxo-19-((3aS,4S,6aR)-2-oxohexahydro-1H-thieno[3,4-d]imidazol-4-yl)-4,7,10-trioxa-14-azanonadecyl)-1H-1,2,3-triazol-4-yl)methyl)amino)-5-(3-(4-(3-(trifluoromethyl)-3H-diazirin-3-yl)phenyl)propanamido)hexyl)amino)butanoate]", "values": [
      {"measurement": "hydrolysis and cyclization of the active NHS ester", "setting": "[1]", "result": "partial hydrolysis as well as intramolecular cyclization of the active NHS ester were inevitable"}
    ]}
  ]
}
